pKd: −log10 of the molar value. Where a SMILES comes first, the peptide text is derived from it. Where no end group is shown, it is not given here. Side-chain parts run from the residue outwards. [ ]: non-standard residue; d: D form. maleimide = maleimide-thiosuccinimide linker; pGlu = O=C1CC[C@@H](C(=O)O)N1; P(Dap) = not defined here; PEG = not defined here
Assays:
[1] = test system: FLT3×CD3 TCE (SEQ ID NO: 93); test: Association kinetics by KinExA (Table 5); type: binding; conditions: for koff: KinExA, FLT3×CD3 TCE; for fold-koff / fold-kon: relative to the parent CD3ε epitope peptide
Protocol: (§1) • 1. Preparation of NHS-activated sepharose fast-flow beads: • 2. Fast flow sepharose suspension in 100% IPA, washed twice with milliQ H20, mild centrifugation to pool beads in between wash steps. • 3. Equilibrated in 0.15 M NaBO3, pH=8.5 buffer • 4. Added 80 mM PDEA to activate the resin for thiol exchange, 10 mins, r.t. • 5. Equilibrated resin with Hepes Buffered Saline-P (0.01 M HEPES pH 7.4, 0.15 M NaCl, 0.005% v/v Surfactant P2), pH 7.4 binding buffer • 6. Added 30 μg/mL of binding peptide, […] (SEQ ID NO; 297) or pGlu-[…] (SEQ ID NO: 300), reaction for 1 hr to functionalize resin. • 7. Quench with 10 mM L-Cys for 1 hour. • 8. Constant Binding Partner was FLT3×CD3 TCE (SEQ ID NO: 93), MW 105720, 3.2 mg/mL 31.21 uM was diluted to 333 pM and the pGlu-[…] peptide or pGlu-[…]-PEG (Pep-PEG v2) were titrated from 1 uM or 400 nM down to 2.3 pM concentrations relative to effective peptide molarity.
Association Kinetics by KinExA

[2] = test system: anti-CD3ε paratope of a CD3ε binding domain of a TCE; test: Affinity class of the binding peptide of the masking molecule
Description: The exact value may vary with the respective TCE. However, the […]

[3] = test system: CDH3×MSLN dual targeting TCE with two CD3e binders (SEQ ID NO 255); test: TDCC assay, inhibition of cytotoxicity (Example 15); type: cell-based; conditions: same peptide concentration; PBMC E:T 10:1, 48 or 72 hours
Protocol: Example 15: TCE Masking Molecule Inhibition of Cytotoxicity and Cytokine Release of Representative CDH3×MSLN Dual Targeting TCE with Two CD3e Binders (SEQ ID NO 255)
In vitro potency of CD3e pepPEG was indirectly assessed by measuring in vitro activity of T cell engager (TCE) using T cell dependent cellular cytotoxicity (TDCC) assay. Either 100 pM or 300 pM of TCE was mixed with increasing concentrations of CD3e pepPEG before the mixture is treated to cells. Peripheral blood mononuclear cells (PBMCs) as effector cells were co-cultured with tumor target cells at an effector cell-to-target cell ratio of 10:1 in the presence of mixture of TCE and CD3e pepPEG for 48 hours or 72 hours at 37° C. Cytotoxicity of TCE was assessed by Steady-Glo (Promega) for luciferase-tagged target cells and CellTiter-Glo (Promega) for non-luciferase-tagged target cells after plates were washed to eliminate T cells. Specific cytotoxicity curves and EC50 values were derived using Prism 7.04 (GraphPad). Cytokine production was assessed in supernatants from TDCC assays using electro-chemiluminescence assays (MesoScale Discovery).

[4] = Mouse pharmacokinetic study, IV (Example 2); conditions: BL/6, mouse, plasma, iv, 1 mg/kg
Protocol: Example 2: Mouse Pharmacokinetic Study to Evaluate In Vivo PK
The 4-arm 20 kDa PepPOL conjugate was dosed by IV administration to BL/6 mice at 0.82 or 8.2 mg/kg dose levels. […] The PK profiles for each peptide were evaluated by quantifying plasma concentrations of total intact peptide material over time (see methods).

[5] = test system: STEAP1×CD3e heterodimeric TCE; test: T cell dependent cellular cytotoxicity (TDCC) assay, inhibition of TCE cytotoxicity; type: cell-based; conditions: STEAP1×CD3, CLDN6×CD3 and DLL3×CD3 TCE; PBMC E:T 10:1, 48 hours
Protocol: Example 12: In Vitro Cytotoxicity and Cytokine Release Inhibition by Binding Peptides
In vitro potency of CD3e pepPEG was indirectly assessed by measuring in vitro activity of T cell engager (TCE) using T cell dependent cellular cytotoxicity (TDCC) assay. […] Cytokine production was assessed in supernatants from TDCC assays using electro-chemiluminescence assays (MesoScale Discovery).

[6] = molecular target: FLT3×CD3 TCE (SEQ ID NO: 93); test: Equilibrium binding affinity measurement by KinExA (Table 5); conditions: for pKd: KinExA, FLT3×CD3 TCE as constant binding partner; for fold-Kd: affinity gain relative to the parent CD3ε epitope peptide
Protocol: Equilibrium Binding Affinity Measurement by KinExA
as §1

[7] = test system: CDH3-CD3-MSLN-CD3 TCE (SEQ ID NO 255); test: SPR assay of immobilized peptides binding with TCE; conditions: bivalent analyte model
Protocol: (§2) Example 14: SPR Assay of Immobilized Peptides Binding with TCE
(§3) A cytiva CM5 chip was first functionalized with PDEA (2-(2pyridinyldithio)ethaneamine) under standard ((1-ethyl-3-(3-dimethylaminopropyl)carbodiimide)/(N-hydroxysuccinimide) EDC/NHS coupling conditions where the PDEA is dissolved to 20 mM and 1 M NaCl in 0.1 M sodium acetate pH 4.3. Binding peptides were dissolved to 50- or 100-ug/mL respectively in PBST, pH 6.5, and coupling times were optimized to yield the desired surface density.

[8] = test system: CLDN6xCD3 TCE SEQ ID NO 340; test: SPR assay of immobilized peptides binding with TCE; conditions: immobilized peptide, Kinetic 1:1 Binding
Protocol: as §2, §3

[9] = test system: DLL3xCD3 TCE SEQ ID NO 104; test: SPR assay of immobilized peptides binding with TCE; conditions: immobilized peptide, Kinetic 1:1 Binding
Protocol: as §2, §3

[10] = test system: FLT3xCD3 TCE SEQ ID NO 93; test: SPR assay of immobilized peptides binding with TCE; conditions: immobilized peptide, Kinetic 1:1 Binding
Protocol: as §2, §3

[11] = test system: Steap 1xCD3 TCE SEQ ID NO 373 + 374 + 375; test: SPR assay of immobilized peptides binding with TCE; conditions: immobilized peptide, Kinetic 1:1 Binding
Protocol: as §2, §3

[12] = masking molecules of Example 12
[13] = masking molecules tested with respect to TCE of SEQ ID NO 255 (Table 20)

Chain of CDH3×MSLN dual targeting TCE with two CD3e binders (SEQ ID NO 255) (as listed by the source): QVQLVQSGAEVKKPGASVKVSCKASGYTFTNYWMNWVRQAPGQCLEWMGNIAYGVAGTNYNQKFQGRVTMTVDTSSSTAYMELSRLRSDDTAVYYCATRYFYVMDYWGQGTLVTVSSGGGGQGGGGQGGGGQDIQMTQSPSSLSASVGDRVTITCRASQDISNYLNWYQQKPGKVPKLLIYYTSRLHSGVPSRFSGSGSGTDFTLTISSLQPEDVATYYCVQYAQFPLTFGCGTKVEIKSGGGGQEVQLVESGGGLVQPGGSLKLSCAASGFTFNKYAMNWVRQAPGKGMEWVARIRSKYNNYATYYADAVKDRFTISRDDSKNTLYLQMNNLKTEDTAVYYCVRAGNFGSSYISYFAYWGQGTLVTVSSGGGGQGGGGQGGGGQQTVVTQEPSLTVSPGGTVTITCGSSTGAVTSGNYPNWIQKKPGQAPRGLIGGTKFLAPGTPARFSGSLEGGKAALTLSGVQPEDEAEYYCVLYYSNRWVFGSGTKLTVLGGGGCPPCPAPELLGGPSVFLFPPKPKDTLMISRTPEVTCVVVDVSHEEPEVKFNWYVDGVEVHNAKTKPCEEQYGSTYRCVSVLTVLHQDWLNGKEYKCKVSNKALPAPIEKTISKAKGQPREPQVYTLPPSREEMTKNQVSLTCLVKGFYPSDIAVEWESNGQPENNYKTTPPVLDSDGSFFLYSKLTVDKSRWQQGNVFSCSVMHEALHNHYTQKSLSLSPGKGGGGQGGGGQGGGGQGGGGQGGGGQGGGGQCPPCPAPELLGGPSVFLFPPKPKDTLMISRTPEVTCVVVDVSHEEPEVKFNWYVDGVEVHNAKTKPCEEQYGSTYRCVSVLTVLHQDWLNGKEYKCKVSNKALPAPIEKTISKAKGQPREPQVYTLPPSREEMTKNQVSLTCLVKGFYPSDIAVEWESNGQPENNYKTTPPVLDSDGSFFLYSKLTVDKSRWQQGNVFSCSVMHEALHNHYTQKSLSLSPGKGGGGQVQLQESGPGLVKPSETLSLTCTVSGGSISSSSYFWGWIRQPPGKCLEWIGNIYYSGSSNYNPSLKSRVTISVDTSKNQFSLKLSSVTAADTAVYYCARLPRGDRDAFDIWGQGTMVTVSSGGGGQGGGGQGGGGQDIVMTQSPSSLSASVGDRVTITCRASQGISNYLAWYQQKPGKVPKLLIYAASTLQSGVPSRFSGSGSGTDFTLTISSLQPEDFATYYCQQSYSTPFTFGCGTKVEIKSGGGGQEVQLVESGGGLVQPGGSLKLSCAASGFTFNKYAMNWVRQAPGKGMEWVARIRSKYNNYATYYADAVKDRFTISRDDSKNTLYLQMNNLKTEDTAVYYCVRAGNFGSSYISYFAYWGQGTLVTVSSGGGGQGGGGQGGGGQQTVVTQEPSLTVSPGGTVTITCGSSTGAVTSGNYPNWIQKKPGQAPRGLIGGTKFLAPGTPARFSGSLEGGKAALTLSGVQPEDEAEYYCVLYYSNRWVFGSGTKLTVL
Chain of FLT3×CD3 TCE (SEQ ID NO: 93) (as listed by the source): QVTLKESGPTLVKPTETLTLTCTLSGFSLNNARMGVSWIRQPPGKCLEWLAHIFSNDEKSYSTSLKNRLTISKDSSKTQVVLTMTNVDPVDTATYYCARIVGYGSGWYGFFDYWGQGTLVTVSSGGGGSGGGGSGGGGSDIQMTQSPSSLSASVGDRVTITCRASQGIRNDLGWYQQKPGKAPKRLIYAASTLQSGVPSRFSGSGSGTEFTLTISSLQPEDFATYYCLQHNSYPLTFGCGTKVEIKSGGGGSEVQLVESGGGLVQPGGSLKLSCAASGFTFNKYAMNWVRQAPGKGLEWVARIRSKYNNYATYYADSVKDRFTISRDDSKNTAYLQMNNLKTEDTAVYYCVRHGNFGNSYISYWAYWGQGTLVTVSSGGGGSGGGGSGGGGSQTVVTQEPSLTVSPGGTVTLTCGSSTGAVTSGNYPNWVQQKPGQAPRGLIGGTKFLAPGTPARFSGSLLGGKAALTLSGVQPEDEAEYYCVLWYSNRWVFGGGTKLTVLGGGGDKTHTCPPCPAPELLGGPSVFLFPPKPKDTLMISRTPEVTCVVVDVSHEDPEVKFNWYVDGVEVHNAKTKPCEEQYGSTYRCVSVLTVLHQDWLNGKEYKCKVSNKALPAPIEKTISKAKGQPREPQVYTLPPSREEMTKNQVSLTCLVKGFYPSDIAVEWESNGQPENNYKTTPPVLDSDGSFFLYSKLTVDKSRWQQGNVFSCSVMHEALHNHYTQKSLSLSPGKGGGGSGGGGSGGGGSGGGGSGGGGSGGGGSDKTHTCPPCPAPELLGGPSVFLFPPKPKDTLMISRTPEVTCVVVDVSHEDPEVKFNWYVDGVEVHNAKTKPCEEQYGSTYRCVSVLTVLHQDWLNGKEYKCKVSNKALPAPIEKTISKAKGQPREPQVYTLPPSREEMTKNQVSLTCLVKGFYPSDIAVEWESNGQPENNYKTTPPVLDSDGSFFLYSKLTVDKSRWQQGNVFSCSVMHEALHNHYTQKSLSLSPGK
Chain of Steap 1xCD3 TCE SEQ ID NO 373 + 374 + 375 (as listed by the source): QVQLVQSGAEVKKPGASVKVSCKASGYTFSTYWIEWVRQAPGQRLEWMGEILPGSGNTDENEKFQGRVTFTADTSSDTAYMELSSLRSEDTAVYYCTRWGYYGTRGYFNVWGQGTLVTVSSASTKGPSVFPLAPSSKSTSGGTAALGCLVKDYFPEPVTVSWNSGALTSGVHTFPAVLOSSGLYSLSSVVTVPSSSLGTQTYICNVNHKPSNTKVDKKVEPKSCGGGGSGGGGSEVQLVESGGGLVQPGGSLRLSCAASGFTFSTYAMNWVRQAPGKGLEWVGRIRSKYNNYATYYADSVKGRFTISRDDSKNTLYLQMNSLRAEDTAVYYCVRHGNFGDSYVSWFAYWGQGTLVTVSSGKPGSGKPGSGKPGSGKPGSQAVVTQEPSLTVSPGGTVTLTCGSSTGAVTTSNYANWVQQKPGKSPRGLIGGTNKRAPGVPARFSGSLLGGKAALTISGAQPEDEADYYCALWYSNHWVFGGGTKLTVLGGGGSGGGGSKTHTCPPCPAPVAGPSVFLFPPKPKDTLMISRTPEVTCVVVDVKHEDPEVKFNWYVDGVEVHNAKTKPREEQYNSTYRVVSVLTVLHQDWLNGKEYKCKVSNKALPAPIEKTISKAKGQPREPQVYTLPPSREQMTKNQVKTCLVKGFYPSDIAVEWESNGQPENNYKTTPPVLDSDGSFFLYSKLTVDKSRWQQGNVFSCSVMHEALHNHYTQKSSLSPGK
Chain of Steap 1xCD3 TCE SEQ ID NO 373 + 374 + 375 (as listed by the source partner): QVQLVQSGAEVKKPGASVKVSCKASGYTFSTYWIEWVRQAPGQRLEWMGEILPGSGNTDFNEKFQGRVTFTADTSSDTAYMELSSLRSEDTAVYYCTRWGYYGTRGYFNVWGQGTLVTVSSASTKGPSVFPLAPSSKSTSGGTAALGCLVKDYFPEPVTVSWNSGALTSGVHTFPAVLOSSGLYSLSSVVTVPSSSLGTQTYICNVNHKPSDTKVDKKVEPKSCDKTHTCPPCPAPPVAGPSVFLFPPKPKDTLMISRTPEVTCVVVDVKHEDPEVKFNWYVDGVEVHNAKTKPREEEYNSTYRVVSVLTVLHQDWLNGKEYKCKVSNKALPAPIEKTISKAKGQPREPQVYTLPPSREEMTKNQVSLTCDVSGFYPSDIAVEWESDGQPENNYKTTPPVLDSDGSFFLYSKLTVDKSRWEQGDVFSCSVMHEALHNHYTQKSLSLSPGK
Chain of Steap 1xCD3 TCE SEQ ID NO 373 + 374 + 375 (as listed by the source partner): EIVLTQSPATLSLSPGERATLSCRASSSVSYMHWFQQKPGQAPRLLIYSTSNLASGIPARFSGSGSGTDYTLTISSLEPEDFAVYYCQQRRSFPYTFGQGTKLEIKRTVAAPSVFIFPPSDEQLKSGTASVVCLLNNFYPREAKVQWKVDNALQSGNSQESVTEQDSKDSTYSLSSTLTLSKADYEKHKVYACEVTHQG
Chain of DLL3xCD3 TCE SEQ ID NO 104 (as listed by the source): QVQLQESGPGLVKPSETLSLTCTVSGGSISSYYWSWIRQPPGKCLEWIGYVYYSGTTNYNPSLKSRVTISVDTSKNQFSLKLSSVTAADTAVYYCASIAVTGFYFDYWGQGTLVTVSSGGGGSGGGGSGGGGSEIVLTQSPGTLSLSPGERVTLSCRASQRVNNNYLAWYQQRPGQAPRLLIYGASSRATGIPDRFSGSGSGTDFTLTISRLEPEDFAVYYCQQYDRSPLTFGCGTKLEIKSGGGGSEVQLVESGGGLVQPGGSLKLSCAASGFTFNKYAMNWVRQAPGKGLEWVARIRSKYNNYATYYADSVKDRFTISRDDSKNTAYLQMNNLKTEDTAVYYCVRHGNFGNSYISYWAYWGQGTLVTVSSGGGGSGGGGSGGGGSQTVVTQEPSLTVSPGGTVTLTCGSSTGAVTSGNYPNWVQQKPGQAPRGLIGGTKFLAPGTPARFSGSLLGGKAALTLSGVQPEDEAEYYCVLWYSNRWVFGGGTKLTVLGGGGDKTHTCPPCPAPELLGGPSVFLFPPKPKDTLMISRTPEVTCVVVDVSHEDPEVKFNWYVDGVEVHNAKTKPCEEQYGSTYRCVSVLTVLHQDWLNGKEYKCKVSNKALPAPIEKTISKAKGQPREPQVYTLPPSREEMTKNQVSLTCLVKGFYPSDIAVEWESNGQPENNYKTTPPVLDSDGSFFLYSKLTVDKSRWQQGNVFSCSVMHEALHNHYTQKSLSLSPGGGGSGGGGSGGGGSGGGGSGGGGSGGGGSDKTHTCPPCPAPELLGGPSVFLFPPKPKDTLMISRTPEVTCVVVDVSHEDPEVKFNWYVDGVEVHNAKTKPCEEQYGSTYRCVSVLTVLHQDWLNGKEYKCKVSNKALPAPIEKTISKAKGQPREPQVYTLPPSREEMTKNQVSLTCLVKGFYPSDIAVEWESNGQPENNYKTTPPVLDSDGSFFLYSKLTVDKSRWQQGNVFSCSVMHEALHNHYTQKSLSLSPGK

QDGNEEMGGMEENGDQ
koff [1]: 0.00471 s⁻¹

pE-DGNEELKGK (mPEG)-OH ([pGlu]DGNEELKGK([acetamide‑thioether-mPEG 20 kDa])-OH) [73136-2]
Affinity [2, 12]: High (an affinity indicated as Kd of about 0.05 to about 10 nM, typically 0.1 pM to 10 nM or 500 pM to 5 nM is considered of “high” affinity) | Affinity [2, 13]: High (an affinity indicated as Kd of about 0.05 to about 10 nM, typically 0.1 pM to 10 nM or 500 pM to 5 nM is considered of “high” affinity) | inhibition of cytotoxicity, in vitro potency (FIG. 20) [3]: comparable results among each other

QDGNEEMGQDGNEEMG
koff [1]: 0.00586 s⁻¹

CSCC[C@H](NC(=O)CNC(=O)[C@H](CCCCN)NC(=O)CNC(=O)[C@H](CCSC)NC(=O)[C@H](CCC(=O)O)NC(=O)[C@H](CCC(=O)O)NC(=O)[C@H](CC(N)=O)NC(=O)CNC(=O)[C@H](CC(=O)O)NC(=O)[C@@H](N)CCC(N)=O)C(=O)N[C@@H](CCC(=O)O)C(=O)N[C@@H](CCC(=O)O)C(=O)N[C@@H](CC(N)=O)C(=O)NCC(=O)N[C@@H](CC(=O)O)C(=O)N[C@@H](CCC(N)=O)C(=O)N[C@@H](CS)C(=O)O (H-QDGNEEMGKGMEENGDQC-OH; N-terminus and C-terminus assumed)
half-life [4]: 3 to 10 min

QDGNEEMG [reference compound]
koff [1]: 0.0248 s⁻¹

pE-DGNEELKGC (PEG)-NH2 [79674-1] ([pGlu]DGNEELKGC(PEG)-NH2; not fully specified; printed as pE-DGNEELKGC (PEG)-NH2; reading uncertain; also: PEG type and size not given here)
Affinity [2, 12]: High (an affinity indicated as Kd of about 0.05 to about 10 nM, typically 0.1 pM to 10 nM or 500 pM to 5 nM is considered of “high” affinity) | Affinity [2, 13]: High (an affinity indicated as Kd of about 0.05 to about 10 nM, typically 0.1 pM to 10 nM or 500 pM to 5 nM is considered of “high” affinity) | inhibition activity against TCE cytotoxicity (FIG. 15) [5]: highest inhibition activity

pE-DGEEELKGK (mPEG)-OH ([pGlu]DGEEELKGK(mPEG)-OH; numbers in words are those of the source; also: Lys side chain linked via thioether to 20 kDa mPEG) [82138-1]
Affinity [2, 13]: Intermediate (an affinity of about 10 to 150, preferably 10 to 100 mM is considered of “high” affinity)

(QDGNEEMG)3K
koff [1]: 0.00016 s⁻¹

QDGNEEMGKQDGNEEMG
koff [1]: 0.00497 s⁻¹

pE-DGEEELKGC (PEG)-NH2 [79677-1] ([pGlu]DGEEELKGC([maleimide-4‑arm PEG 5 kDa])-NH2; also: 4-arm PEG conjugate, number of peptide copies not given here)
Affinity [2, 13]: Intermediate (an affinity of about 10 to 150, preferably 10 to 100 mM is considered of “high” affinity) | inhibition of cytotoxicity, in vitro potency (FIG. 20) [3]: comparable results among each other

pE-DGNEELKGK (PEG)-OH ([pGlu]DGNEELKGK-OH; not fully specified (residue 10); printed as pE-DGNEELKGK (PEG)-OH) [73135-2]
Affinity [2, 12]: High (an affinity indicated as Kd of about 0.05 to about 10 nM, typically 0.1 pM to 10 nM or 500 pM to 5 nM is considered of “high” affinity) | Affinity [2, 13]: High (an affinity indicated as Kd of about 0.05 to about 10 nM, typically 0.1 pM to 10 nM or 500 pM to 5 nM is considered of “high” affinity)

QDGNEEMGK
koff [1]: 0.0179 s⁻¹

pE-DGNEELKGC (PEG)-OH (N-terminal pyroglutamate, 20K PEG on Cys) [71203-2]
Affinity [2, 12]: High (an affinity indicated as Kd of about 0.05 to about 10 nM, typically 0.1 pM to 10 nM or 500 pM to 5 nM is considered of “high” affinity) | Affinity [2, 13]: High (an affinity indicated as Kd of about 0.05 to about 10 nM, typically 0.1 pM to 10 nM or 500 pM to 5 nM is considered of “high” affinity)

QDGNEEMG-P(Dap)-GMEENGDQ (chain 1 QDGNEEMG-{P(Dap)}; reading uncertain; also: chains linked via Dap residue 'P(Dap)')
pKd [6]: 8.96 | fold-Kd [6]: 32.55 | koff [1]: 0.0075 s⁻¹ | fold-koff [1]: 0.30 | fold-kon [1]: 6.36

pE-DGEEELKGK (PEG)-OH ([pGlu]DGEEELKGK(PEG 20 kDa)-OH; not fully specified) [79921-1]
Affinity [2, 13]: Intermediate (an affinity of about 10 to 150, preferably 10 to 100 mM is considered of “high” affinity)

QDGNEEMG-K(Nϵ)-GMEENGDQ (chain 1 QDGNEEMGK; also: branched: chains joined through a Lys, chain 2 on Lys Nε, direction not given here)
pKd [6]: 8.99 | fold-Kd [6]: 21.65 | koff [1]: 0.00447 s⁻¹ | fold-koff [1]: 0.25 | fold-kon [1]: 5.38

pE-DGNEELKGC (PEG)-NH2 [79675-1] ([pGlu]DGNEELKGC-NH2; also: PEG attached, size and site not given here in name)
Affinity [2, 12]: High (an affinity indicated as Kd of about 0.05 to about 10 nM, typically 0.1 pM to 10 nM or 500 pM to 5 nM is considered of “high” affinity) | Affinity [2, 13]: High (an affinity indicated as Kd of about 0.05 to about 10 nM, typically 0.1 pM to 10 nM or 500 pM to 5 nM is considered of “high” affinity) | inhibition activity against TCE cytotoxicity (FIG. 15) [5]: highest inhibition activity

CSCC[C@H](NC(=O)CNC(=O)[C@H](CCCCN)NC(=O)CNC(=O)[C@H](CCSC)NC(=O)[C@H](CCC(=O)O)NC(=O)[C@H](CCC(=O)O)NC(=O)[C@H](CC(N)=O)NC(=O)CNC(=O)[C@H](CC(=O)O)NC(=O)[C@@H](N)CCC(N)=O)C(=O)N[C@@H](CCC(=O)O)C(=O)N[C@@H](CCC(=O)O)C(=O)N[C@@H](CC(N)=O)C(=O)NCC(=O)N[C@@H](CC(=O)O)C(=O)N[C@@H](CCC(N)=O)C(=O)O (H-QDGNEEMGKGMEENGDQ-OH)
half-life [4]: 3 to 10 min

pE-DGEEELKGC (PEG)-NH2 [79676-1] ([pGlu]DGEEELKGC(PEG)-NH2; not fully specified; printed as pE-DGEEELKGC (PEG)-NH2; reading uncertain; also: PEG type and size not given here)
Affinity [2, 13]: Intermediote | inhibition of cytotoxicity, in vitro potency (FIG. 20) [3]: comparable results among each other

pGlu-DGNEELKGC ([pGlu]DGNEELKGC; also: entry DGNEELKGC marks its position 1 as pyroglutamic acid)
fast component for the off-rate [7]: 0.0212 s⁻¹ | fast component of the on-rate [7]: 2.42e+06 M⁻¹ s⁻¹ | ka [8]: 2.72e+06 M⁻¹ s⁻¹ | kd [8]: 0.0038 s⁻¹ | ka [9]: 2.14e+06 M⁻¹ s⁻¹ | kd [9]: 0.00279 s⁻¹ | ka [10]: 1.88e+06 M⁻¹ s⁻¹ | kd [10]: 0.0024 s⁻¹ | ka [11]: 2e+06 M⁻¹ s⁻¹ | kd [11]: 0.00514 s⁻¹
